# Tested on: vasopressor response of angiotensin II
# Experiment: AII Challenge: antagonism of angiotensin II vasopressor response;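 for Response Average Change: post-dose Angiotensin II-evoked rise in systolic blood pressure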
# Type: in vivo
# Conditions: for inhibition in vivo at 3 mg/kg / inhibition in vivo at 5 mg/kg / inhibition in vivo at 1 mg/kg: Rattus norvegicus; for inhibition in vivo at 3 mg/kg / inhibition in vivo at 1 mg/kg: iv; for inhibition in vivo at 5 mg/kg: po
# Description: Conscious Male Okamoto-Aoki SHR, 16-20 weeks old, weighing approximately 330 g are purchased from Charles River Labs (Wilmington, Mass.). Conscious rats are restrained in a supine position with elastic tape. The area at the base of the tail is locally anesthetized by subcutaneous infiltration with 2% procaine. The ventral caudal artery and vein are isolated, and a cannula made of polyethylene (PE) 10-20 tubing (fused together by heat) is passed into the lower abdominal aorta and vena cava, respectively. The cannula is secured, heparinized (1,000 I.U./ml), sealed and the wound is closed. The animals are placed in plastic restraining cages in an upright position. The cannula is attached to a Statham P23 Db pressure transducer, and pulsatile blood pressure is recorded to 10-15 minutes with a Gould Brush recorder. (Chan et al., (Drug Development Res., 18:75-94, 1989). Angiotensin II (human sequence, Sigma Chem. Co., St. Louis, Mo.) of 0.05 and 0.1 ug/kg i.v. is injected into all rats (predosing response). Then a test compound, vehicle or a known angiotensin II antagonist is administered i.v., i.p. or orally to each set of rats. The two doses of angiotensin II are given to each rat again at 30, 60, 90, 120, 180, 240 and 300 minutes post dosing the compound or vehicle. The vasopressor response of angiotensin II is measured for the increase in systolic blood pressure in mmHg. The percentage of antagonism or blockade of the vasopressor response of angiotensin II by a compound is calculated using the vasopressor response (increase in systolic blood pressure) of angiotensin II of each rat predosing the compound as 100%.
smiles,measurement,setting,value
"CCCCc1nc2ccc([C@@H]3C[C@H]4CCC(C)(C)N4O3)cc2c(=O)n1Cc1ccc(-c2ccccc2-c2nnn[nH]2)cc1 (relative stereo) [Example 61, (Cis)-2-Butyl-6-(hexahydro-6,6-dimethylpyrrolo[1,2-b]isoxazol-2-yl)-3-[[2'-(1H-tetrazol-5-yl][1,1'-biphenyl]-4-yl]methyl]-4(3H)-quinazolinone]",Response Average Change,"3 mg/kg I.V., AII 0.05 mcg/kg IV, 30 min post dose",7.5 mmHg
same,Response Average Change,"3 mg/kg I.V., AII 0.05 mcg/kg IV, 60 min post dose",10 mmHg
same,Response Average Change,"3 mg/kg I.V., AII 0.05 mcg/kg IV, 90 min post dose",6 mmHg
same,Response Average Change,"3 mg/kg I.V., AII 0.05 mcg/kg IV, 120 min post dose",13.5 mmHg
same,Response Average Change,"3 mg/kg I.V., AII 0.05 mcg/kg IV, 180 min post dose",15 mmHg
same,Response Average Change,"3 mg/kg I.V., AII 0.1 mcg/kg IV, 30 min post dose",7.5 mmHg
same,Response Average Change,"3 mg/kg I.V., AII 0.1 mcg/kg IV, 60 min post dose",12.5 mmHg
same,Response Average Change,"3 mg/kg I.V., AII 0.1 mcg/kg IV, 90 min post dose",3.5 mmHg
same,Response Average Change,"3 mg/kg I.V., AII 0.1 mcg/kg IV, 120 min post dose",15 mmHg
same,Response Average Change,"3 mg/kg I.V., AII 0.1 mcg/kg IV, 180 min post dose",16 mmHg
same,Response Average Change,"5 mg/kg P.O., AII 0.05 mcg/kg IV, 30 min post dose",27.5 mmHg
same,Response Average Change,"5 mg/kg P.O., AII 0.05 mcg/kg IV, 60 min post dose",29 mmHg
same,Response Average Change,"5 mg/kg P.O., AII 0.05 mcg/kg IV, 90 min post dose",30 mmHg
same,Response Average Change,"5 mg/kg P.O., AII 0.05 mcg/kg IV, 120 min post dose",22.5 mmHg
same,Response Average Change,"5 mg/kg P.O., AII 0.05 mcg/kg IV, 180 min post dose",35 mmHg
same,Response Average Change,"5 mg/kg P.O., AII 0.1 mcg/kg IV, 30 min post dose",32.5 mmHg
same,Response Average Change,"5 mg/kg P.O., AII 0.1 mcg/kg IV, 60 min post dose",35 mmHg
same,Response Average Change,"5 mg/kg P.O., AII 0.1 mcg/kg IV, 90 min post dose",29 mmHg
same,Response Average Change,"5 mg/kg P.O., AII 0.1 mcg/kg IV, 120 min post dose",30 mmHg
same,Response Average Change,"5 mg/kg P.O., AII 0.1 mcg/kg IV, 180 min post dose",35 mmHg
same,inhibition in vivo at 3 mg/kg,"0.5 h, 3 mg/kg I.V., AII 0.05 mcg/kg IV, 30 min post dose",83%
same,inhibition in vivo at 3 mg/kg,"0.5 h, 3 mg/kg I.V., AII 0.1 mcg/kg IV, 30 min post dose",84%
same,inhibition in vivo at 3 mg/kg,"1 h, 3 mg/kg I.V., AII 0.05 mcg/kg IV, 60 min post dose",78%
same,inhibition in vivo at 3 mg/kg,"1 h, 3 mg/kg I.V., AII 0.1 mcg/kg IV, 60 min post dose",73%
same,inhibition in vivo at 3 mg/kg,"2 h, 3 mg/kg I.V., AII 0.05 mcg/kg IV, 120 min post dose",70%
same,inhibition in vivo at 3 mg/kg,"2 h, 3 mg/kg I.V., AII 0.1 mcg/kg IV, 120 min post dose",67%
same,inhibition in vivo at 3 mg/kg,"3 h, 3 mg/kg I.V., AII 0.05 mcg/kg IV, 180 min post dose",67%
same,inhibition in vivo at 3 mg/kg,"3 h, 3 mg/kg I.V., AII 0.1 mcg/kg IV, 180 min post dose",65%
same,inhibition in vivo at 3 mg/kg,"[…], 3 mg/kg I.V., AII 0.05 mcg/kg IV, 90 min post dose",87%
same,inhibition in vivo at 3 mg/kg,"[…], 3 mg/kg I.V., AII 0.1 mcg/kg IV, 90 min post dose",92%
same,inhibition in vivo at 5 mg/kg,"0.5 h, 5 mg/kg P.O., AII 0.05 mcg/kg IV, 30 min post dose",40%
same,inhibition in vivo at 5 mg/kg,"0.5 h, 5 mg/kg P.O., AII 0.1 mcg/kg IV, 30 min post dose",31%
same,inhibition in vivo at 5 mg/kg,"1 h, 5 mg/kg P.O., AII 0.05 mcg/kg IV, 60 min post dose",37%
same,inhibition in vivo at 5 mg/kg,"1 h, 5 mg/kg P.O., AII 0.1 mcg/kg IV, 60 min post dose",26%
same,inhibition in vivo at 5 mg/kg,"2 h, 5 mg/kg P.O., AII 0.05 mcg/kg IV, 120 min post dose",51%
same,inhibition in vivo at 5 mg/kg,"2 h, 5 mg/kg P.O., AII 0.1 mcg/kg IV, 120 min post dose",36%
same,inhibition in vivo at 5 mg/kg,"3 h, 5 mg/kg P.O., AII 0.05 mcg/kg IV, 180 min post dose",24%
same,inhibition in vivo at 5 mg/kg,"3 h, 5 mg/kg P.O., AII 0.1 mcg/kg IV, 180 min post dose",26%
same,inhibition in vivo at 5 mg/kg,"[…], 5 mg/kg P.O., AII 0.05 mcg/kg IV, 90 min post dose",35%
same,inhibition in vivo at 5 mg/kg,"[…], 5 mg/kg P.O., AII 0.1 mcg/kg IV, 90 min post dose",38%
"CCCCc1nc2ccc([C@@]3(c4ccccc4)C[C@@H]4CCCN4O3)cc2c(=O)n1Cc1ccc(-c2ccccc2-c2nnn[nH]2)cc1 (relative stereo) [Example 70, Cis-2-butyl-6-(hexahydro-2-phenylpyrrolo-[1,2-b]isoxazol-2-yl)-3-[[2'-(1H-tetrazol-5-yl)[1,1'-biphenyl]-4-yl]methyl]-4(3H)-quinazolinone]",Response Average Change,"1 mg/kg i.v., AII 0.05 mcg/kg IV, 30 min post dose",23.5 mmHg
same,Response Average Change,"1 mg/kg i.v., AII 0.05 mcg/kg IV, 60 min post dose",12.5 mmHg
same,Response Average Change,"1 mg/kg i.v., AII 0.05 mcg/kg IV, 90 min post dose",12.5 mmHg
same,Response Average Change,"1 mg/kg i.v., AII 0.05 mcg/kg IV, 120 min post dose",20 mmHg
same,Response Average Change,"1 mg/kg i.v., AII 0.05 mcg/kg IV, 180 min post dose",20 mmHg
same,Response Average Change,"1 mg/kg i.v., AII 0.05 mcg/kg IV, 240 min post dose",27.5 mmHg
same,Response Average Change,"1 mg/kg i.v., AII 0.05 mcg/kg IV, 300 min post dose",30 mmHg
same,Response Average Change,"1 mg/kg i.v., AII 0.1 mcg/kg IV, 30 min post dose",30 mmHg
same,Response Average Change,"1 mg/kg i.v., AII 0.1 mcg/kg IV, 60 min post dose",17.5 mmHg
same,Response Average Change,"1 mg/kg i.v., AII 0.1 mcg/kg IV, 90 min post dose",30.5 mmHg
same,Response Average Change,"1 mg/kg i.v., AII 0.1 mcg/kg IV, 120 min post dose",26 mmHg
same,Response Average Change,"1 mg/kg i.v., AII 0.1 mcg/kg IV, 180 min post dose",30 mmHg
same,Response Average Change,"1 mg/kg i.v., AII 0.1 mcg/kg IV, 240 min post dose",30 mmHg
same,Response Average Change,"1 mg/kg i.v., AII 0.1 mcg/kg IV, 300 min post dose",37.5 mmHg
same,inhibition in vivo at 1 mg/kg,"0.5 h, 1 mg/kg i.v., AII 0.05 mcg/kg IV, 30 min post dose",48%
same,inhibition in vivo at 1 mg/kg,"0.5 h, 1 mg/kg i.v., AII 0.1 mcg/kg IV, 30 min post dose",37%
same,inhibition in vivo at 1 mg/kg,"1 h, 1 mg/kg i.v., AII 0.05 mcg/kg IV, 60 min post dose",72%
same,inhibition in vivo at 1 mg/kg,"1 h, 1 mg/kg i.v., AII 0.1 mcg/kg IV, 60 min post dose",63%
same,inhibition in vivo at 1 mg/kg,"2 h, 1 mg/kg i.v., AII 0.05 mcg/kg IV, 120 min post dose",56%
same,inhibition in vivo at 1 mg/kg,"2 h, 1 mg/kg i.v., AII 0.1 mcg/kg IV, 120 min post dose",45%
same,inhibition in vivo at 1 mg/kg,"3 h, 1 mg/kg i.v., AII 0.05 mcg/kg IV, 180 min post dose",56%
same,inhibition in vivo at 1 mg/kg,"3 h, 1 mg/kg i.v., AII 0.1 mcg/kg IV, 180 min post dose",37%
same,inhibition in vivo at 1 mg/kg,"4 h, 1 mg/kg i.v., AII 0.05 mcg/kg IV, 240 min post dose",39%
same,inhibition in vivo at 1 mg/kg,"4 h, 1 mg/kg i.v., AII 0.1 mcg/kg IV, 240 min post dose",37%
same,inhibition in vivo at 1 mg/kg,"5 h, 1 mg/kg i.v., AII 0.05 mcg/kg IV, 300 min post dose",33%
same,inhibition in vivo at 1 mg/kg,"5 h, 1 mg/kg i.v., AII 0.1 mcg/kg IV, 300 min post dose",21%
same,inhibition in vivo at 1 mg/kg,"[…], 1 mg/kg i.v., AII 0.05 mcg/kg IV, 90 min post dose",72%
same,inhibition in vivo at 1 mg/kg,"[…], 1 mg/kg i.v., AII 0.1 mcg/kg IV, 90 min post dose",36%
